The text below walks through data of the NIST ThermoML archive (doi:10.1021/acs.jced.6b00803).

± gives the expanded uncertainty stated by the source.

As usually defined, the mass density is mass per unit of volume.

For the data set the following is noted: 298.15 K; 101.33 kPa; Liquid; Vibrating tube method.
Take `CC(=O)CCc1ccccc1` [4-phenyl-2-butanone]: the mass density was 984.742 ± 4 kg/m3.
For `CC(=O)OCc1ccccc1` [benzyl ethanoate] the value was 1051.1 ± 4.2 kg/m3; for `CCCCCCCCCCCC` [dodecane], 745.508 ± 3 kg/m3.
For `CCCCCCCCCCCCCCCC` [hexadecane] the value was 770.221 ± 3.1 kg/m3; for `CCCCCCCCCCCCCC` [tetradecane], 759.275 ± 3 kg/m3.
